Patent US12690589B2, “Herbicidal compositions comprising pyroxasulfone” (BASF SE, priority 2024, dated 2026)

Key:
Assay in all cases: Post-emergence application in field trials, herbicidal activity (damage scale 0 to 100%)
Type in all cases: in vivo
[1] = tested on: Euphorbia heterophylla (EPHHL); settings: B 120 g ai/ha, 21 DAT
[2] = tested on: Spermacoce latifolia (BOILF); settings: B 120 g ai/ha, 21 DAT, Table 2.5
Eleusine indica (ELEIN) = settings: B 120 g ai/ha
Panicum maximum (PANMA) = settings: height 20-25 cm, B 120 g ai/ha, 21 DAT, Table 2.3
[3] = tested on: Galinsoga parviflora (GASPA); settings: height 15-35 cm, B 120 g ai/ha, 21 DAT, Table 2.4
Ipomoea triloba (IPOTR) = settings: height 20-25 cm, B 120 g ai/ha, 21 DAT, Table 2.2
Bidens pilosa (BIDPI) = settings: B 120 g ai/ha
[4] = tested on: Amaranthus viridis (AMAVI); settings: growth stage 16-18, height 10-15 cm, B 120 g ai/ha, 20 DAT, Table 2.1
[5] = tested on: Portulaca oleracea (POROL); settings: growth stage 14-16, height 5-10 cm, B 120 g ai/ha, 20 DAT, Table 2.1
[6] = tested on: Brachiaria plantaginea (BRAPL); settings: growth stage 21-25, height 10-15 cm, B 120 g ai/ha, 20 DAT, Table 2.1
[7] = tested on: Setaria verticillata (SETVE)
Outline: (§1)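 Field sites with natural or seeded weeds were sprayed post-emergence via flat fan nozzles in 200 l/ha water plus 0.25 v/v % MSO adjuvant, solo or mixed with pyroxasulfone and other partners. Damage was scored 0–100% versus untreated plants at indicated DAT. Colby expected values were used to judge synergy.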

[8] = tested on: Amaranthus retroflexus (AMARE)
Outline: as §1

Cn1nc(C(F)(F)F)c(CS(=O)(=O)C2=NOC(C)(C)C2)c1OC(F)F [B, pyroxasulfone]
% Herbicidal activity ([1]; growth stage 12-16, height 5-15 cm, Table 2.6): 5%
% Herbicidal activity ([1]; height 15-35 cm, Table 2.4): 0%
% Herbicidal activity ([1]; height 20-25 cm, Table 2.2): 0%
% Herbicidal activity [2]: 5%
% Herbicidal activity (Eleusine indica (ELEIN); growth stage 21-25, height 5-10 cm, 20 DAT, Table 2.1): 0%
% Herbicidal activity (Eleusine indica (ELEIN); growth stage 23-25, height 3-5 cm, 21 DAT, Table 2.6): 5%
% Herbicidal activity (Eleusine indica (ELEIN); height 20-25 cm, 21 DAT, Table 2.3): 0%
% Herbicidal activity (Panicum maximum (PANMA)): 0%
% Herbicidal activity [3]: 0%
% Herbicidal activity (Ipomoea triloba (IPOTR)): 0%
% Herbicidal activity (Bidens pilosa (BIDPI); growth stage 12-16, height 5-10 cm, 21 DAT, Table 2.6): 5%
% Herbicidal activity (Bidens pilosa (BIDPI); growth stage 23-25, height 10-20 cm, 20 DAT, Table 2.1): 0%
% Herbicidal activity (Bidens pilosa (BIDPI); height 20-45 cm, 21 DAT, Table 2.4): 0%
% Herbicidal activity [4]: 0%
% Herbicidal activity [5]: 0%
% Herbicidal activity [6]: 0%
% Herbicidal activity ([7]; 7 DAT, stage 21-23, height 8-16 cm, g ai/ha A-1 18, B 70, C-8 840): 0%
% Herbicidal activity ([7]; 7 DAT, stage 21-23, height 8-16 cm, g ai/ha A-1 18, B 70, C-12 252): 0%
% Herbicidal activity ([7]; 7 DAT, stage 21-23, height 8-16 cm, g ai/ha A-1 18, B 90, C-4 12.5): 0%
% Herbicidal activity ([7]; 7 DAT, stage 21-23, height 8-16 cm, g ai/ha A-1 18, B 90, C-8 840): 0%
% Herbicidal activity ([7]; 7 DAT, stage 21-23, height 8-16 cm, g ai/ha A-1 18, B 90, C-12 252): 0%
% Herbicidal activity ([7]; 21 DAT, stage 21-23, height 8-16 cm, g ai/ha A-1 18, B 90, C-12 252): 0%
% Herbicidal activity ([7]; 42 DAT, stage 21-23, height 8-16 cm, g ai/ha A-1 12.5, B 70): 0%
% Herbicidal activity ([7]; 42 DAT, stage 21-23, height 8-16 cm, g ai/ha A-1 12.5, B 70, C-12 252): 0%
% Herbicidal activity ([7]; 42 DAT, stage 21-23, height 8-16 cm, g ai/ha A-1 18, B 70): 0%
% Herbicidal activity ([7]; 42 DAT, stage 21-23, height 8-16 cm, g ai/ha A-1 18, B 90, C-12 252): 0%
% Herbicidal activity ([7]; SETVE, growth stage 21-23, height 8-16 cm, B 70 g ai/ha, 7 DAT, Table 4.1): 0%
% Herbicidal activity ([7]; SETVE, growth stage 21-23, height 8-16 cm, B 70 g ai/ha, 21 DAT, Table 4.3): 0%
% Herbicidal activity ([7]; SETVE, growth stage 21-23, height 8-16 cm, B 90 g ai/ha, 7 DAT, Table 4.1): 0%
% Herbicidal activity ([7]; SETVE, growth stage 21-23, height 8-16 cm, B 90 g ai/ha, 21 DAT, Table 4.3): 0%
% Herbicidal activity ([7]; Table 8.1, 7 DAT, stage 21-23, height 8-16 cm, g ai/ha A-1 18, B 70, C-12 1066): 0%
% Herbicidal activity ([7]; Table 8.2, 21 DAT, stage 21-23, height 8-16 cm, g ai/ha A-1 12.5, B 70, C-12 1066): 0%
% Herbicidal activity ([7]; Table 8.4, 42 DAT, stage 21-23, height 8-16 cm, g ai/ha A-1 12.5, B 70, C-12 1066): 0%
% Herbicidal activity ([8]; 7 DAT, stage 31-49, height 10-12 cm, g ai/ha A-1 12.5, B 70, C-4 12.5): 0%
% Herbicidal activity ([8]; 21 DAT, stage 31-49, height 10-12 cm, g ai/ha A-1 18, B 70, C-12 252): 0%
% Herbicidal activity ([8]; 21 DAT, stage 31-49, height 10-12 cm, g ai/ha A-1 18, B 90, C-12 252): 0%
% Herbicidal activity ([8]; 42 DAT, stage 31-49, height 10-12 cm, g ai/ha A-1 12.5, B 70, C-4 12.5): 0%
% Herbicidal activity ([8]; 42 DAT, stage 31-49, height 10-12 cm, g ai/ha A-1 18, B 70): 0%
% Herbicidal activity ([8]; 42 DAT, stage 31-49, height 10-12 cm, g ai/ha A-1 18, B 70, C-4 12.5): 0%
% Herbicidal activity ([8]; 42 DAT, stage 31-49, height 10-12 cm, g ai/ha A-1 18, B 90, C-4 12.5): 0%
% Herbicidal activity ([8]; AMARE, growth stage 31-49, height 10-12 cm, B 70 g ai/ha, 7 DAT, Table 4.1): 0%
% Herbicidal activity ([8]; AMARE, growth stage 31-49, height 10-12 cm, B 70 g ai/ha, 21 DAT, Table 4.3): 0%
% Herbicidal activity ([8]; AMARE, growth stage 31-49, height 10-12 cm, B 90 g ai/ha, 7 DAT, Table 4.1): 0%
% Herbicidal activity ([8]; AMARE, growth stage 31-49, height 10-12 cm, B 90 g ai/ha, 21 DAT, Table 4.3): 0%
